From EP1146866B1, “A METHOD FOR TREATING PATIENTS WITH ACNE BY ADMINISTERING A CYCLIC GMP PDE INHIBITOR” (priority 1999, dated 2000)

What was measured:
PDE5 = PDE5 (Homo sapiens, UniProt O76074); assay: cGMP-specific PDE inhibition activity (3H cyclic GMP substrate); type: biochemical
Protocol: (§1) cGMP-specific phosphodiesterase activity can be determined using methods known in the art, such as a method using radioactive ^3H cyclic GMP (cyclic 3',5'-guanosine monophosphate) as the substrate for PDE5 enzyme (Thompson, W.J., Teraski, W.L., Epstein, P.M., Strada, S.J., Advances in Cyclic Nucleotide Research, 10:69-92, 1979. Using such techniques, the values of cGMP-specific inhibition set forth in Table 1 were determined for the compounds above: TABLE 1

PDE2 = PDE2 (Homo sapiens, UniProt O00408); assay: cGMP-stimulated PDE inhibition activity; type: biochemical
PDE2, sequence (O00408 whole entry): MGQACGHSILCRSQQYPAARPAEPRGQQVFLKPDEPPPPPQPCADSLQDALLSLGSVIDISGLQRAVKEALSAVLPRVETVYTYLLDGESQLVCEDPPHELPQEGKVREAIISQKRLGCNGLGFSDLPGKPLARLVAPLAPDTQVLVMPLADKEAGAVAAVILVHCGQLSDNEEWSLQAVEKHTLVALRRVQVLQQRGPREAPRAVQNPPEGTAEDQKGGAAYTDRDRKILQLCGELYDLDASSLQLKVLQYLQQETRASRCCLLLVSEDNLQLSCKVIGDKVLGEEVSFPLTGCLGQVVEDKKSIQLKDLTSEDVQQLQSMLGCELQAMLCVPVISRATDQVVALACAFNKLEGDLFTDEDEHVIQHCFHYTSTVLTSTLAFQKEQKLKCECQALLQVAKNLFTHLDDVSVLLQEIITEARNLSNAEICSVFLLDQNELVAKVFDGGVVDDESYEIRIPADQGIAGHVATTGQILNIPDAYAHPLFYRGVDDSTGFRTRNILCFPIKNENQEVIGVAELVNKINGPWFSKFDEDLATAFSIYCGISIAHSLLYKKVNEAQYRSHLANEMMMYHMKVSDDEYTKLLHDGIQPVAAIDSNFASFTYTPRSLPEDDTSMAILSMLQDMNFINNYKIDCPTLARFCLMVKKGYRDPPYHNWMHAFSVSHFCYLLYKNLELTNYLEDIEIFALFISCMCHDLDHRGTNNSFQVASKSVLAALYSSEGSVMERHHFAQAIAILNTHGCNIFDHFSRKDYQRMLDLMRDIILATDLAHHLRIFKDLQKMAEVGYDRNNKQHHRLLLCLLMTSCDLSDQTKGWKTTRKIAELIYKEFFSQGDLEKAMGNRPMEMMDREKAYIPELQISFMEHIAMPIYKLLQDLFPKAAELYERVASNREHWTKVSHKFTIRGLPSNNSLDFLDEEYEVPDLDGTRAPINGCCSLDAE
Protocol: as §1
cGMP phosphodiesterase activity can be determined using the methods referenced in Example 5, above. Using such techniques, the IC50 value for the inhibition of PDE2 by the compound of Example 1, exisulind, was determined as shown in Table 2.

acne vulgaris = assay: Clinical results with a patient with acne vulgaris; type: in vivo, human
Protocol: A patient with acne vulgaris was given a pharmaceutical composition containing 125 mg of a cGMP-specific PDE inhibitor, exisulind (the compound of Example 1), twice daily for 8 weeks. […] Since the patient was tolerating that daily dose quite well, their dose of exisulind was increased to 150 mg twice daily, for an additional 8 weeks.
The pharmaceutical formulation for the 150 mg-containing pharmaceutical composition taken by this patient contained exisulind (150 mg), lactose monohydrate (207 mg), croscarmellose sodium (15 mg), colloidal silicon dioxide (1 mg), magnesium stearate (6.3 mg), and sodium lauryl sulfate (0.7 mg) encapsulated in a # 1 gelatin capsule. The exisulind was obtained from Zambon Group, S.p.A., of Milan, Italy. The pharmaceutical formulation for the 125 mg containing composition was formulated with less exisulind, and more excipients to fill the capsule.

[1] = Clinical studies of exisulind for uses other than acne (tolerability); type: in vivo
Protocol: In studies with adult patients, patients with intact colons received exisulind at a dosage of 400 mg/day, and patients who had previously undergone a colectomy received exisulind at a dosage of 600 mg/day. In another study with adult patients, the patients received 500 mg/day of exisulind. In a study involving pediatric patients, the dosage of exisulind used ranged from 250 to 350 mg per day.
In these studies, exisulind is generally well tolerated in patients. […] The maximum tolerated dose (MTD) was determined to be 600 mg/day in patients with colectomies, and 400 mg/day in the group with intact colons. […] These elevations were completely reversible on stopping the drug. Additionally, after a patient with elevated liver enzymes stops receiving the drug for approximately one week, the patient can then safely resume treatment at the same or a lower therapeutic dose, i.e. the dosages mentioned above. The elevations seem to be dose related and have been seen mostly at doses above the maximum tolerated dose. […] Thirteen of those patients received exisulind for over three years.

SMILES	inhibition at 10 µM (PDE5) [%]	IC50 (PDE2) [µM]	patient's acne (acne vulgaris; 150 mg twice daily for an additional 8 weeks, end of second 8-week period)	adverse side effects reported by patient (acne vulgaris; after 125 mg then 150 mg twice daily, 8 weeks each)	manifestations of acne during continued treatment (acne vulgaris; continued on drug for six months)	patient's acne (intensity) (acne vulgaris; patient, 125 mg twice daily for 8 weeks)	maximum tolerated dose (MTD) ([1]; group with intact colons) [mg/day]	liver function tests ([1]; human, in vivo)	side effects in clinical studies ([1]; human, in vivo)	side effects on extended treatment ([1]; human, in vivo)	maximum tolerated dose (MTD) ([1]; patients with colectomies) [mg/day]
CC1=C(CC(=O)O)c2cc(F)ccc2/C1=C\c1ccc(S(C)(=O)=O)cc1 [Example 1, α-(1-p-Methylsulfonylbenzylidene)-2-Methyl-5-Fluoro-3-Indenyl-Acetic Acid]	39	300	disappeared completely	no adverse side effects	without any significant manifestations of acne	decrease noticeably in intensity	400	moderate, reversible, asymptomatic elevation in liver function tests	no clinically relevant side effects reported	no such clinically significant side effects	600
COC(=O)CC1=C(C)/C(=C/c2ccc(S(C)(=O)=O)cc2)c2ccc(F)cc21 [Example 2, α-(1-p-Methylsulfonylbenzylidene)-2-Methyl-5-Fluoro-3-Indenyl -Acetic Acid Methyl Ester]	50	–	–	–	–	–	–	–	–	–	–
CC1=C(CCO)c2cc(F)ccc2/C1=C\c1ccc(S(C)(=O)=O)cc1 [Example 3, (Z)-5-Fluoro-2-Methyl-1-(4-Methylsulfonylbenzylidene)-1H-3-Indenyl-(2-Hydroxy) Ethane]	80	–	–	–	–	–	–	–	–	–	–
